Test results from patent US9821035B2, “Preparation for preventing or treating type I diabetes” (REGIMMUNE CORPORATION, priority 2012, dated 2017).

Assays:
Format in all cases: cell-based
[1] = tested on: IL-2; test: Cytokine production in culture supernatant of spleen cells from drug-administered NOD mice: IL-2; conditions: spleen cells of dosed NOD mice, cultured four days
Method: (§1) 1-5. Analysis of Insulin-B-Peptide-Specific Cell Proliferation of Treg Cells and Measurement of Cytokine Production To NOD mice (NOD/ShiJcl, CLEA Japan Inc., Tokyo, Japan), which are animals representing a spontaneous model for type I diabetes, was intraperitoneally administered 100 μl of the sample for administration, twice a week between the age of 5 to 10 weeks, which was a period prior to the onset of type I diabetes. The spleen was removed from 13-week-old mice and then spleen cells were prepared and subjected to cell culture. Groups receiving test drugs were the following five groups: 1) a group receiving no drug (i.e., a group receiving physiological saline), 2) a group receiving the insulin-B-peptide-incorporated α-GalCer-liposome, 3) a group receiving the insulin-B-peptide-incorporated liposome, 4) a group receiving the α-GalCer-liposome, and 5) a group receiving the α-GalCer solution, with N=2 to 3 animals per group. After preparation of spleen cells from the animals of each of the groups, spleen cells were loaded with CFSE (carboxyfluorescein diacetate succinimidyl ester), a dye used in cell proliferation assays, and subjected to reaction, followed by washing the cells to remove the dye, in regular procedures. […] The concentrations of IL-2 and IL-10 in the culture supernatant were also measured.

[2] = tested on: IL-10; test: Cytokine production in culture supernatant of spleen cells from drug-administered NOD mice: IL-10; conditions: spleen cells of dosed NOD mice, cultured four days
Method: as §1

[3] = tested on: CD4(+) Foxp3(+) cells (Treg cells); test: Insulin-B-peptide-specific proliferation of Treg cells, CFSE/FACS on spleen cells from drug-administered NOD mice (Example 3); conditions: FIG. 3B
Method: as §1

Q: For `CCCCCCCCCCCCCCCCCCCCCCCCCC(=O)N[C@@H](CO[C@H]1O[C@H](CO)[C@H](O)[C@H](O)[C@H]1O)[C@H](O)[C@H](O)CCCCCCCCCCCCCC` [α-GalCer solution, (2S,3S,4R)-1-O-(α-D-galactopyranosyl)-2-hexacosanoylamino-1,3,4-octadecanetriol], which “Concentration of IL-2 in culture supernatant” value [1] is on record?
A: The value was 0.9 pg/mL.

Q: And the “Concentration of IL-10 in culture supernatant” value [2]?
A: The value was 1.3 pg/mL.

Q: What about the “ratio of the percentage of proliferated cells when no antigen was added to the percentage when the insulin B peptide was added” value [3] of the same compound?
A: Its value is 1.04.
